molecular target: T1, human GPBAR1 receptor (Homo sapiens, UniProt Q8TDU6); assay: functional cAMP assay in CHO-dhfr(minus) cells expressing human GPBAR1 receptors; assay type: cell-based; details: cAMP increase (TR-FRET) in CHO-dhfr(minus) cells expressing human GPBAR1; compounds incubated 30 min at 30° C.
T1 construct: expressed in transfected cells
T1 sequence (Q8TDU6 1-330): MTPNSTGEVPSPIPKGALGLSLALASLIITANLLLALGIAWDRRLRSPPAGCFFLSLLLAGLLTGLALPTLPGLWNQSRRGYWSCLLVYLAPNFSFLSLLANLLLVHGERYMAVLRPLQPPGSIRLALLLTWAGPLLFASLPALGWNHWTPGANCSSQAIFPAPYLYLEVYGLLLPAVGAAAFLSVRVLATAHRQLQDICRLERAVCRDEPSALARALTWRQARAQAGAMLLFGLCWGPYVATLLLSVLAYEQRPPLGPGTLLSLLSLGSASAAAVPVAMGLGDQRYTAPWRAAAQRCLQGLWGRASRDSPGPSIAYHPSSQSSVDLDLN

SMILES | EC50
Cc1ccc(N(C)C(=O)c2cccnc2Oc2cc(Cl)ccc2Cl)c(C)c1 [Example 58, 2-(2,5-Dichloro-phenoxy)-N-(2,4-dimethyl-phenyl)-N-methyl-nicotinamide] | 758 nM
O=C(c1ccncc1Oc1cc(Cl)ccc1Cl)N1CCOc2ccccc21 [Example 185, [3-(2,5-Dichloro-phenoxy)-pyridin-4-yl]-(2,3-dihydro-benzo[1,4]oxazin-4-yl)-methanone] | 92 nM
COc1cccc(C)c1N(C)C(=O)c1cccnc1Oc1cc(Cl)ccc1Cl [Example 53, 2-(2,5-Dichloro-phenoxy)-N-(2-methoxy-6-methyl-phenyl)-N-methyl-nicotinamide] | 321 nM
O=C(c1ccncc1Oc1cc(Cl)ccc1Cl)N1CCCc2cc(F)cc(F)c21 [Example 92, [3-(2,5-Dichloro-phenoxy)-pyridin-4-yl]-(6,8-difluoro-3,4-dihydro-2H-quinolin-1-yl)-methanone] | 7 nM
CCOC(=O)CCCCN1CCN(C(=O)c2cc(F)cnc2Oc2cc(Cl)ccc2Cl)c2ccccc21 [Example 159, 5-{4-[2-(2,5-Dichloro-phenoxy)-5-fluoro-pyridine-3-carbonyl]-3,4-dihydro-2H-quinoxalin-1-yl}-pentanoic acid ethyl ester] | 395 nM
CN(C(=O)c1cccnc1Oc1cc(Cl)ccc1Cl)c1ccc(F)cc1F [Example 66, 2-(2,5-Dichloro-phenoxy)-N-(2,4-difluoro-phenyl)-N-methyl-nicotinamide] | 518 nM
O=C(O)CCCCCN1CCN(C(=O)c2cc(F)cnc2Oc2cc(Cl)ccc2Cl)c2ccccc21 [Example 161, 6-{4-[2-(2,5-Dichloro-phenoxy)-5-fluoro-pyridine-3-carbonyl]-3,4-dihydro-2H-quinoxalin-1-yl}-hexanoic acid] | 104 nM
O=C(O)CN1CCN(C(=O)c2cc(F)cnc2Oc2cc(Cl)ccc2Cl)c2ccccc21 [Example 155, {4-[2-(2,5-Dichloro-phenoxy)-5-fluoro-pyridine-3-carbonyl]-3,4-dihydro-2H-quinoxalin-1-yl}-acetic acid] | 788 nM
CC1CCc2ccccc2N1C(=O)c1cc(F)ccc1Oc1cc(Cl)ccc1Cl (stereo not drawn) [Example 114, [2-(2,5-Dichloro-phenoxy)-5-fluoro-phenyl]-(2-methyl-3,4-dihydro-2H-quinolin-1-yl)-methanone] | 946 nM
O=C(O)CCNC(=O)CCc1cc(Cl)c(Oc2ncccc2C(=O)N2CCN(C3CC3)c3ccccc32)cc1Cl [Example 179, 3-(3-{2,5-Dichloro-4-[3-(4-cyclopropyl-3,4-dihydro-2H-quinoxaline-1-carbonyl)-pyridin-2-yloxy]-phenyl}-propionylamino)-propionic acid] | 41 nM
O=C(O)CCc1ccc(S(=O)(=O)N2CCN(C(=O)c3cccnc3Oc3cc(Cl)ccc3Cl)c3ccccc32)cc1 [Example 143, 3-(4-{4-[2-(2,5-Dichloro-phenoxy)-pyridine-3-carbonyl]-3,4-dihydro-2H-quinoxaline-1-sulfonyl}-phenyl)-propionic acid] | 745 nM
O=C(c1cc(F)cnc1Oc1cc(Cl)ccc1Cl)N1CCN(CCC(F)(F)F)c2ccccc21 [Example 153, [2-(2,5-Dichloro-phenoxy)-5-fluoro-pyridin-3-yl]-[4-(3,3,3-trifluoro-propyl)-3,4-dihydro-2H-quinoxalin-1-yl]-methanone] | 565 nM
O=C(O)c1ccc(C#Cc2cc(Cl)c(Oc3ncccc3C(=O)N3CCN(C4CC4)c4ccccc43)cc2Cl)cc1Cl [Example 168, 2-Chloro-4-{2,5-dichloro-4-[3-(4-cyclopropyl-3,4-dihydro-2H-quinoxaline-1-carbonyl)-pyridin-2-yloxy]-phenylethynyl}-benzoic acid] | 1440 nM
O=C(c1cc(F)ccc1Oc1cc(Cl)ccc1Cl)N1CCOc2ccccc21 [Example 117, [2-(2,5-Dichloro-phenoxy)-5-fluoro-phenyl]-(2,3-dihydro-benzo[1,4]oxazin-4-yl)-methanone] | 572 nM
CN(C(=O)c1cccnc1Oc1cc(Cl)ccc1Cl)c1ccccc1-c1ccnn1C [Example 133, 2-(2,5-Dichloro-phenoxy)-N-methyl-N-[2-(2-methyl-2H-pyrazol-3-yl)-phenyl]-nicotinamide] | 1970 nM
O=C(c1cc(F)cnc1Oc1cc(Cl)ccc1Cl)N1CCN(C2CCC2)c2ccccc21 [Example 150, (4-Cyclobutyl-3,4-dihydro-2H-quinoxalin-1-yl)-[2-(2,5-dichloro-phenoxy)-5-fluoro-pyridin-3-yl]-methanone] | 58 nM

Next, values leading:

EC50 | SMILES
307 nM | O=C(O)CN1CCN(C(=O)c2cccnc2Oc2cc(Cl)ccc2Cl)c2ccccc21 [Example 142, {4-[2-(2,5-Dichloro-phenoxy)-pyridine-3-carbonyl]-3,4-dihydro-2H-quinoxalin-1-yl}-acetic acid]
128 nM | O=C(c1cccnc1Oc1ccc(F)c(Cl)c1)N1CCCc2ncccc21 [Example 78, [2-(3-Chloro-4-fluoro-phenoxy)-pyridin-3-yl]-(3,4-dihydro-2H-[1,5]naphthyridin-1-yl)-methanone]
1400 nM | Cc1ccc2c(c1)CCCN2C(=O)c1cccnc1Oc1cccc(C(F)(F)F)c1 [Example 4, (6-Methyl-3,4-dihydro-2H-quinolin-1-yl)-[2-(3-trifluoromethyl-phenoxy)-pyridin-3-yl]-methanone]
649 nM | Cc1ccc2c(c1)CCCN2C(=O)c1cccnc1Oc1cccc(Cl)c1 [Example 5, [2-(3-Chloro-phenoxy)-pyridin-3-yl]-(6-methyl-3,4-dihydro-2H-quinolin-1-yl)-methanone]
996 nM | O=C(c1cccnc1Oc1ccc(Cl)c(Cl)c1)N1CCCc2ccccc21 [Example 6, [2-(3,4-Dichloro-phenoxy)-pyridin-3-yl]-(3,4-dihydro-2H-quinolin-1-yl)-methanone]
128 nM | O=C(c1cc(F)cnc1Oc1cccc(Cl)c1)N1CCCc2ccccc21 [Example 25, [2-(3-Chloro-phenoxy)-5-fluoro-pyridin-3-yl]-(3,4-dihydro-2H-quinolin-1-yl)-methanone]
127 nM | O=C(c1cccnc1Oc1ccc(F)c(Cl)c1)N1CCCc2cc(F)c(F)cc21 [Example 79, [2-(3-Chloro-4-fluoro-phenoxy)-pyridin-3-yl]-(6,7-difluoro-3,4-dihydro-2H-quinolin-1-yl)-methanone]
148 nM | COC(=O)CCC#Cc1cc(Cl)c(Oc2ncccc2C(=O)N2CCCc3ccccc32)cc1Cl [Example 166, 5-{2,5-Dichloro-4-[3-(3,4-dihydro-2H-quinoline-1-carbonyl)-pyridin-2-yloxy]-phenyl}-pent-4-ynoic acid methyl ester]
19 nM | O=C(c1ccncc1Oc1cc(Cl)ccc1Cl)N1CCCc2ccc(F)cc21 [Example 90, [3-(2,5-Dichloro-phenoxy)-pyridin-4-yl]-(7-fluoro-3,4-dihydro-2H-quinolin-1-yl)-methanone]
57 nM | O=C(c1cccnc1Oc1cc(Cl)ccc1Cl)N1CCCc2cc(F)c(F)cc21 [Example 38, [2-(2,5-Dichloro-phenoxy)-pyridin-3-yl]-(6,7-difluoro-3,4-dihydro-2H-quinolin-1-yl)-methanone]
149 nM | O=C(c1cc(F)ccc1Oc1cc(Cl)ccc1Cl)N1CCCc2ccccc21 [Example 113, [2-(2,5-Dichloro-phenoxy)-5-fluoro-phenyl]-(3,4-dihydro-2H-quinolin-1-yl)-methanone]
